{"source": "patent US20240382463A1", "about": "“Composition Comprising HDAC Inhibitor and Immune Checkpoin Inhibitor and Methods For Using the Same” (Avstera Therapeutics Corp., priority 2023, published 2024)", "key": {"HDAC6": {"biological_target": "T1, HDAC6 (Homo sapiens, UniProt Q9UBN7)", "T1 sequence (Q9UBN7 1-1215)": "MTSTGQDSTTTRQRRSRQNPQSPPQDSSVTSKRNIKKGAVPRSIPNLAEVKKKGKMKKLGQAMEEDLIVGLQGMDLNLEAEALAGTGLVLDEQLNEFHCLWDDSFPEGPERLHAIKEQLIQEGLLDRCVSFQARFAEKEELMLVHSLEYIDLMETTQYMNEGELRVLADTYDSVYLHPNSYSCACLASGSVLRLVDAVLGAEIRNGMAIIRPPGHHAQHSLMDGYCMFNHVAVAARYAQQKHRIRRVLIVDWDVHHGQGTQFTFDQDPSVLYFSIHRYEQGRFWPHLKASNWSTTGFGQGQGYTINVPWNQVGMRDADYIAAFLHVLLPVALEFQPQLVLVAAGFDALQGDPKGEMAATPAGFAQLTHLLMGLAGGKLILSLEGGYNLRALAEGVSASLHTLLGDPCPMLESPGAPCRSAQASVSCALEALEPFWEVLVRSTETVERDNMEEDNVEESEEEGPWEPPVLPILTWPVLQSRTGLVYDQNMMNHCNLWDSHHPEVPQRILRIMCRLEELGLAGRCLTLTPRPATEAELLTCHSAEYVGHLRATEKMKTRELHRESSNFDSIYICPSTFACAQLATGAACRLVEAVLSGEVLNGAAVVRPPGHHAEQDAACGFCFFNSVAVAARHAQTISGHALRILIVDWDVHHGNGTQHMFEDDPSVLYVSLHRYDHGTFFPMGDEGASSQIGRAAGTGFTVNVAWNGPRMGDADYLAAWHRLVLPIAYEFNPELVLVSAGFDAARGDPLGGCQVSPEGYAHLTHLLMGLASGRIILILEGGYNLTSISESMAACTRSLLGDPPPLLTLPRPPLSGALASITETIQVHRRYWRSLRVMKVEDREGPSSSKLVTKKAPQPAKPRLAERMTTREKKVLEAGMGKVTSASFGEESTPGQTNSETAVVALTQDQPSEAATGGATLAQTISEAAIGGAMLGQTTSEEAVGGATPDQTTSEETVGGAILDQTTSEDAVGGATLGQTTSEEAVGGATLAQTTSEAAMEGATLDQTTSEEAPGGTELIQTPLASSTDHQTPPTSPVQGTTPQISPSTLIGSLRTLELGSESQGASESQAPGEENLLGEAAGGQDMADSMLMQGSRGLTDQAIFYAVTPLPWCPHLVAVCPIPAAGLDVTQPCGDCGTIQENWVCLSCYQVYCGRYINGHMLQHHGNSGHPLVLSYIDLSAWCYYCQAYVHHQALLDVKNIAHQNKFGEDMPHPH", "details": "cited from earlier work"}, "Hepatocyte stability": {"test": "Hepatocyte stability", "type": "in vitro ADME", "details": "human, hepatocytes; read-out: Hepatocytes stability (t½)"}, "[1]": {"test_system": "primary human macrophages", "test": "Polarization of primary human macrophages (qPCR, RNAseq)", "type": "cell-based"}, "hERG": {"biological_target": "hERG (Homo sapiens, UniProt Q12809)", "sequence (Q12809 whole entry)": "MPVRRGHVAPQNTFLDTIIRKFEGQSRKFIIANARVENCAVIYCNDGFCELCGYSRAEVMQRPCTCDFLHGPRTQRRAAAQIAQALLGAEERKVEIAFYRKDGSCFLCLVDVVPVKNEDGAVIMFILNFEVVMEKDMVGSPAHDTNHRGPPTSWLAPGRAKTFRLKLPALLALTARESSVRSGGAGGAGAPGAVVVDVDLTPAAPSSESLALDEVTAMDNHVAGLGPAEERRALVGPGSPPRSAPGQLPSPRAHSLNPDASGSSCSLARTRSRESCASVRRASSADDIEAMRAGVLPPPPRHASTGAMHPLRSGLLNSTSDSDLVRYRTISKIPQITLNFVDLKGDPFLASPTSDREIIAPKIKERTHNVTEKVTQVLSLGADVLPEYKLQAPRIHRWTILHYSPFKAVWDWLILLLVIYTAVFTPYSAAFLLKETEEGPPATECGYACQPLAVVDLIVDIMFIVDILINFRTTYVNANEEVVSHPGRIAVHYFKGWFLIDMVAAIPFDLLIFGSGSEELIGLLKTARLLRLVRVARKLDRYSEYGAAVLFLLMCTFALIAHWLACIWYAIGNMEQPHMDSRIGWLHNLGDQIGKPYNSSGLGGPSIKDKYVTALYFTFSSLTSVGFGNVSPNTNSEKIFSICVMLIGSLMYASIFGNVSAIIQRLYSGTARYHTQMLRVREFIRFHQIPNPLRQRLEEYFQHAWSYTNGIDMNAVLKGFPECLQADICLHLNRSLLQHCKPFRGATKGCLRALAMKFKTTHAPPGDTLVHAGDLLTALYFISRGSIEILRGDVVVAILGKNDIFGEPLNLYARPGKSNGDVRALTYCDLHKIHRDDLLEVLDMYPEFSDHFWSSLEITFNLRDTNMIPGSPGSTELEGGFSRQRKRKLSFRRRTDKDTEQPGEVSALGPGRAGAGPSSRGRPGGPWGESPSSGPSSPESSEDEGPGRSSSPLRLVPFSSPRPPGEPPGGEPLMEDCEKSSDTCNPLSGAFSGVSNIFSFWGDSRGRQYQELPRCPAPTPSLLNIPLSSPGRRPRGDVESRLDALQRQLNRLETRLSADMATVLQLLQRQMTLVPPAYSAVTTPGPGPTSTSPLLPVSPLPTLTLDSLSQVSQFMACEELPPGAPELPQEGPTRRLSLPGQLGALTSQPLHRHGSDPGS", "test": "hERG test", "details": "up to 30 μM"}, "CT26 colon cancer tumors": {"test_system": "CT26 colon cancer tumors", "test": "CT26 colon cancer model, in vivo tumor growth", "design": "species or system Balb/c mice", "procedure": "For the CT26 colon cancer model animal studies were performed by Adgyl Lifesciences. Mice were implanted with 0.5×10^6 CT26 cells in the right flanks of 7-8 week-old female Balb/c mice. […] Tumor volume and body weight were monitored twice weekly. Tumor dissection and single-cell suspension: Tumor single-cell suspensions were obtained by mincing the tumor tissue with scalps in petri dishes with complete media, followed by incubation of the minced tumors in a digestion solution (collagenase I, collagenase IV, hyaluronidase V, and DNase I) at 37° C. with rotation for 30-45 min. The digested solution was passed by a cell strainer to remove undigested material, centrifuged, washed and resuspended in complete media."}, "[2]": {"test_system": "Raw264.7 murine macrophages", "test": "M1 polarization of Raw264.7 macrophages, Western blot"}, "[3]": {"test_system": "THP1 cells differentiated to macrophages", "test": "THP1 macrophages, M2 polarization signalling, Western blot", "type": "cell-based, human", "procedure": "(§1) Immunoblot-blot, FACs, and gPCR: For western-blot analysis cell monolayers were washed in PBS and lyzed with complete RIPA buffer containing protease, phosphatases and the HDAC inhibitor Panabinostat (10 nM). Cells were sonicated for 12 cycles at high intensity and the cell lysates were centrifuged at 12,000 rpm for 10 minutes at 4° C. to remove the cell debris. Protein quantitation on the supernatants was performed using BCA assay. Protein samples were prepared at 1 ug/uL concentration with 6× Lamelli buffer and incubated for 5 minutes at 90° C. Precast gels containing 20 μg of protein/sample were run and the gels were transferred to a PVDF membrane and stained with specific antibodies. The antibodies used for western-blot are anti-α-tubulin (mouse DM1A, Cell Signaling Tech), anti-acetyl-α-tubulin (rabbit K40, Cell Signaling Tech), anti-iNOS (rabbit polyclonal, Invitrogen), anti-Arginasel (rabbit D4E3M, Cell Signaling Tech). Anti-c-Myc (rabbit D84C12, cell Signaling Tech), anti-acetylated-c-Myc (Rabbit polyclonal Acetyl-Lys148-c-Myc, Sigma-Aldrich), anti-Stat6 (Rabbit D3H4, Cell Signaling Tech), anti-Phospho-Stat6 (Polyclonal Rabbit, Cell Signaling Tech), anti-Stat3 (Rabbit 79D7, Cell Signaling Tech), anti-Phospho-Stat3-727 (Rabbit D8C2Z, Cell Signaling Tech), anti-phospho-Stat3-705 (Rabbit D3A7, Cell Signaling Tech). […]"}, "[4]": {"test_system": "murine bone marrow-derived macrophages (BMDM)"}, "[5]": {"test_system": "S. typhimurium (TA98 and TA1537)", "test": "Ames assay (mutagenicity)", "type": "cell-based", "details": "for increase in the number of colonies: with and without S9 mix"}, "[6]": {"test": "GLP safety and toxicology studies", "details": "rats and dogs"}, "SM1 melanoma tumors": {"test_system": "SM1 melanoma tumors", "test": "SM1 melanoma model, in vivo tumor growth", "design": "species or system C57BL/6 mice"}, "[7]": {"test": "Plasma pharmacokinetics after oral gavage", "type": "in vivo, C57BL/6 mice", "details": "PEG6000 formulation compared to the CMC formulation", "procedure": "LS-MS: Plasma samples were obtained using EDTA as anticoagulant and run by Adgyl Life Sciences using a fit for purpose LC-MS/MS method. Briefly, plasma samples were run in a triple Quad 6500+LC-MS/MS System using a 50:50 (ACN:Water v/v) working solution diluent. A mobile Phase A: 2 mM Ammonium formate with 0.1% Formic acid, a mobile Phase B: Acetonitrile with 0.1% formic Acid Isocratic mode; Pump A:B: 50:50. Using a Phenomenex Phenyl-Hexyl column of Sum particle size. […] The calibration curve was generated using area ratio of analyte area: area of internal standard vs concentration and was regressed using linear regression equation and weighting of 1/x2.\nThe plasma pharmacokinetic parameters of SS-208 were determined from concentration time curves obtained following a single IV and oral route of administration in male C57BL/6 mice. Values are expressed as mean and n=3 mice/time point/group.\nHowever, tumors are not completely eliminated. […] For oral gavage, CMC or PEG6000 formulations were used in fed or starved mice."}, "[8]": {"test_system": "myeloid and lymphoid lymphoma cell lines", "test": "c-Myc acetylation and levels in lymphoma cell lines, Western blot", "type": "cell-based, human", "procedure": "as §1"}, "[9]": {"test_system": "BMA31A7 murine macrophages", "test": "M2 polarization of BMA31A7 macrophages, Western blot"}, "[10]": {"test": "Safety pharmacology (CNS, pulmonary, cardiovascular)", "details": "in vivo"}, "melanoma tumor models": {"test_system": "melanoma tumor models", "details": "potentiates anti-PD1 therapy; tumors are not completely eliminated; cited from earlier work"}, "[11]": {"test_system": "S. typhimurium (TA98 and TA1537)", "details": "cited from earlier work"}}, "note": "Like-named read-outs stand apart in the source and are kept apart here."}
{"smiles": "O=C(CCCCCCNC(=O)c1cnc(N(c2ccccc2)c2ccccc2)nc1)NO", "note": "[ACY-1215]", "values": [{"measurement": "specificity over HDAC6 than other HDAC isoforms", "setting": "HDAC6", "value": "ten-fold"}]}
{"smiles": "O=C(NCCc1cc(C(=O)NO)no1)c1ccc(Cl)c(Cl)c1", "note": "[AVS100, 5-(2-(3,4-dichlorobenzamido)ethyl)-N-hydroxyisoxazole-3-carboxamide]", "values": [{"measurement": "half-life", "setting": "Hepatocyte stability", "value": 2.25, "unit": "h"}, {"measurement": "genes of the RelA/NFKB transcriptional program inhibited in M1 cells", "setting": "[1]; RNAseq, Trust pathway analysis", "value": 45, "unit": "genes"}, {"measurement": "Cox2, Ccl5, and Socs1 induction", "setting": "[1]; qPCR, M1 (IFN-γ plus LPS)", "value": "partially inhibited"}, {"measurement": "M1 markers Cd64, Tnf and Ido induction", "setting": "[1]; qPCR, M1 (IFN-γ plus LPS)", "value": "did not affect"}, {"measurement": "induction of the M2 markers Cd209, Cd200r1, Mrc1, Tgm2, and Il10", "setting": "[1]; qPCR, M2 (IL-4)", "value": "prevented"}, {"measurement": "inhibition in the hERG assay", "setting": "hERG", "value": "no significant inhibition"}, {"measurement": "tumor growth", "setting": "CT26 colon cancer tumors; AVS100 100 mg/kg daily gavage, anti-PD1 10 mg/kg i.p. every 4 days", "value": "significant tumor growth inhibition"}, {"measurement": "responders with tumor volume lower than 300 mm^3", "setting": "CT26 colon cancer tumors; CT26 colon cancer", "value": 20, "unit": "%"}, {"measurement": "M1-like TAMs", "setting": "CT26 colon cancer tumors; treatment alone", "value": "significant increase"}, {"measurement": "M2-like TAMs", "setting": "CT26 colon cancer tumors; treatment alone", "value": "significant reduction"}, {"measurement": "increase of iNOS levels under M1 polarizing conditions", "setting": "[2]; LPS plus IFNγ, AVS100 10 uM", "value": "did not affect"}, {"measurement": "acetyl-α-tubulin levels", "setting": "[2]; Raw264.7, AVS100 10 uM", "value": "increased"}, {"measurement": "STAT6 phosphorylation in response to IL-4", "setting": "[3]", "value": "not inhibited"}, {"measurement": "c-Myc levels in M0 and M2 polarized macrophages", "setting": "[3]", "value": "reduced"}, {"measurement": "Arg1 levels in M2 polarizing conditions", "setting": "[4]; Western blot", "value": "reduced"}, {"measurement": "iNOS levels under M1 polarizing conditions", "setting": "[4]; Western blot", "value": "partial reduction"}, {"measurement": "Il1b levels in M1 cells", "setting": "[4]; qPCR", "value": "increased"}, {"measurement": "M2 markers Arg1, Fizz1, and Tgfb in M2 cells", "setting": "[4]; qPCR", "value": "inhibition"}, {"measurement": "Nos2 levels", "setting": "[4]; qPCR", "value": "did not affect"}, {"measurement": "AMES test (in words)", "setting": "[5]", "value": "AMES-negative"}, {"measurement": "Ames test (with and without S9)", "setting": "[5]; TA98, TA1537", "value": "negative"}, {"measurement": "increase in the number of colonies", "setting": "[5]; tester strain TA98, any dose", "value": "< 2", "unit": "fold"}, {"measurement": "increase in the number of colonies", "setting": "[5]; tester strain TA1537, any dose", "value": "< 3", "unit": "fold"}, {"measurement": "mutagenicity or toxicity in GLP studies", "setting": "[6]", "value": "no mutagenicity, toxicity, or adverse effects"}, {"measurement": "tumor growth", "setting": "SM1 melanoma tumors; 100 mg/kg, daily oral gavage, standalone", "value": "significantly reduced"}, {"measurement": "tumor growth, standalone therapies", "setting": "SM1 melanoma tumors; AVS100 daily oral gavage, anti-PD1 i.p.", "value": "similarly reduced"}, {"measurement": "intratumoral CD4 T-cells", "setting": "SM1 melanoma tumors; flow cytometry", "value": "reduction"}, {"measurement": "intratumoral CD8 T-cells", "setting": "SM1 melanoma tumors; flow cytometry", "value": "increase"}, {"measurement": "Cluster 0, IFN-TAMs", "setting": "SM1 melanoma tumors; scRNAseq of CD45+ cells", "value": "increased"}, {"measurement": "central memory CD8 T-cells (CD62L+CD44+)", "setting": "SM1 melanoma tumors; standalone treatment", "value": "specific increase"}, {"measurement": "area under the curve (AUC) levels", "setting": "[7]", "value": "higher"}, {"measurement": "bioavailability", "setting": "[7]", "value": "higher"}, {"measurement": "maximum concentrations in blood (Cmax)", "setting": "[7]", "value": "higher"}, {"measurement": "acetyl-c-Myc", "setting": "[8]", "value": "increased"}, {"measurement": "total c-Myc levels", "setting": "[8]", "value": "reduced"}, {"measurement": "acetyl-α-tubulin levels", "setting": "[9]; BMA31A7, AVS100 10 uM", "value": "increased"}, {"measurement": "Arg1 upregulation under M2 polarizing conditions", "setting": "[9]; IL-4 plus IL-13, AVS100 10 uM", "value": "blocked"}, {"measurement": "alterations of CNS behavior, pulmonary or cardiovascular function", "setting": "[10]", "value": "no alterations"}]}
{"smiles": "CCCCN(Cc1ccc(C(=O)NO)cc1)C(=O)Nc1ccccc1", "note": "[Nexturastat-A]", "values": [{"measurement": "antitumoral effect in melanoma tumor models", "setting": "melanoma tumor models", "value": "antitumoral effect"}]}
{"smiles": "O=C(NO)c1ccc(CN2CCCc3cc(Cl)ccc32)cc1", "note": "[SW100]", "values": [{"measurement": "AMES test (in words)", "setting": "[11]", "value": "AMES-negative"}]}
